The compounds below were run against human GPR40 receptor (Homo sapiens, UniProt O14842) (assay: Assay I: IP1 accumulation (IPOne HTRF) in 1321N1 cells stably expressing human GPR40). Settings: 1321N1 cells expressing human GPR40, stimulation 1 hour at 37° C., 10% CO2, final LiCl 50 mM.
Type: cell-based
Procedure: IP1 accumulation measurements using the IPOne assay system—1321N1 cells stably expressing human GPR40 receptor (Euroscreen, Belgium) are seeded 24 h before the assay in black clear-bottom collagen-coated 384-well plates in culture medium containing 10% FCS, 1% Na-Pyruvate and 400 μg/mL G418. IP1 is assayed according to the Manufacturers description (Cisbio Bioassays, France). In brief, the assay is started by substitution of the culture medium by stimulation buffer (Hepes 10 mM, CaCl2 1 mM, MgCl2 0.5 mM, KCl 4.2 mM, NaCl 146 mM and glucose 5.5 mM, pH 7.4) without LiCl. Cells are stimulated for 1 hour at 37° C., 10% CO2 by addition of the compounds that are diluted in stimulation buffer containing LiCl yielding a final LiCl concentration of 50 mM. Assays are stopped by adding HTRF-conjugates (IP1-d2 and Anti-IP1 cryptate Tb) and lysis buffer, provided by the manufacturer. After an incubation time of 1 hour at room temperature plates are measured using an EnVision™, Perkin Elmer. The obtained fluorescence ratios at 665/615 nM are then used to calculate the pEC50 values using GraphPad Prism 5 (Graphpad Software Inc, USA) by interpolation using an IP1 reference curve and subsequent sigmoidal curve fitting allowing for a variable hill slope.

Sequence of human GPR40 receptor (O14842 whole entry): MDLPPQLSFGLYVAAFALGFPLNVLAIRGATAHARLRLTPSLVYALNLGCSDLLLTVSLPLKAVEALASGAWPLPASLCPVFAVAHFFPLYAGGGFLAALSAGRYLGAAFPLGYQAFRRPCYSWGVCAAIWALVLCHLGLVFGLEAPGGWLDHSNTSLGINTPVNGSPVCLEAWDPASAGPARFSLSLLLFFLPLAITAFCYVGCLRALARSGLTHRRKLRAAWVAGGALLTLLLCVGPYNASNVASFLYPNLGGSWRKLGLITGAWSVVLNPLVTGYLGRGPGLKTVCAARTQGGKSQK

Compound | EC50
Cc1cc(OC(C)(C)C#N)cc(C)c1-c1ccc(F)c2c1CC[C@H]2Oc1ccc2c(c1)OC[C@H]2CC(=O)O [Example 21, 2-((S)-6-((R)-4-(4-(2-Cyanopropan-2-yloxy)-2,6-dimethylphenyl)-7-fluoro-2,3-dihydro-1H-inden-1-yloxy)-2,3-dihydrobenzofuran-3-yl)acetic acid] | 9 nM
Cc1cc(OCC(C)(C)CN(C)C)cc(C)c1-c1ccc(F)c2c1CC[C@H]2Oc1ccc2c(c1)OC[C@H]2CC(=O)O [Example 22, 2-((S)-6-((R)-4-(4-(3-(Dimethylamino)-2,2-dimethylpropoxy)-2,6-dimethylphenyl)-7-fluoro-2,3-dihydro-1H-inden-1-yloxy)-2,3-dihydrobenzofuran-3-yl)acetic acid] | 17 nM
Cc1cc(OCCN2CCCC2=O)cc(C)c1-c1ccc(F)c2c1CC[C@H]2Oc1ccc2c(c1)OC[C@H]2CC(=O)O [Example 23, 2-((S)-6-((R)-4-(2,6-Dimethyl-4-(2-(2-oxopyrrolidin-1-yl)ethoxy)phenyl)-7-fluoro-2,3-dihydro-1H-inden-1-yloxy)-2,3-dihydrobenzofuran-3-yl)acetic acid] | 10 nM
Cc1cc(C2=CCOCC2)cc(C)c1-c1ccc(F)c2c1CC[C@H]2Oc1ccc2c(c1)OC[C@H]2CC(=O)O [Example 24, 2-((S)-6-((R)-4-(4-(3,6-dihydro-2H-pyran-4-yl)-2,6-dimethylphenyl)-7-fluoro-2,3-dihydro-1H-inden-1-yloxy)-2,3-dihydrobenzofuran-3-yl)acetic acid] | 3 nM
Cc1cc(C2=CCN(S(C)(=O)=O)CC2)cc(C)c1-c1ccc(F)c2c1CC[C@H]2Oc1ccc2c(c1)OC[C@H]2CC(=O)O [Example 25, 2-((S)-6-((R)-4-(2,6-dimethyl-4-(1-(methylsulfonyl)-1,2,3,6-tetrahydropyridin-4-yl)phenyl)-7-fluoro-2,3-dihydro-1H-inden-1-yloxy)-2,3-dihydrobenzofuran-3-yl)acetic acid] | 35 nM
Cc1cc(OC2CN(S(C)(=O)=O)C2)cc(C)c1-c1ccc(F)c2c1CC[C@H]2Oc1ccc2c(c1)OC[C@H]2CC(=O)O [Example 26, 2-((S)-6-((R)-4-(2,6-Dimethyl-4-(1-(methylsulfonyl)azetidin-3-yloxy)phenyl)-7-fluoro-2,3-dihydro-1H-inden-1-yloxy)-2,3-dihydrobenzofuran-3-yl)acetic acid] | 17 nM
Cc1cc(OCC2CCS(=O)(=O)C2)cc(C)c1-c1ccc(F)c2c1CC[C@H]2Oc1ccc2c(c1)OC[C@H]2CC(=O)O (stereo partly drawn) [Example 27, 2-((3S)-6-((1R)-4-(2,6-Dimethyl-4-((1,1-dioxo-tetrahydrothiophen-3-yl)methoxy)phenyl)-7-fluoro-2,3-dihydro-1H-inden-1-yloxy)-2,3-dihydrobenzofuran-3-yl)acetic acid] | 9 nM
Cc1cc(OCC2CCS(=O)(=O)CC2)cc(C)c1-c1ccc(F)c2c1CC[C@H]2Oc1ccc2c(c1)OC[C@H]2CC(=O)O [Example 28, 2-((S)-6-((R)-4-(2,6-Dimethyl-4-((1,1-dioxo-tetrahydro-2H-thiopyran-4-yl)methoxy)phenyl)-7-fluoro-2,3-dihydro-1H-inden-1-yloxy)-2,3-dihydrobenzofuran-3-yl)acetic acid] | 6 nM
Cc1cc(OCC2CN(S(C)(=O)=O)C2)cc(C)c1-c1ccc(F)c2c1CC[C@H]2Oc1ccc2c(c1)OC[C@H]2CC(=O)O [Example 29, 2-((S)-6-((R)-4-(2,6-Dimethyl-4-((1-(methylsulfonyl)azetidin-3-yl)methoxy)phenyl)-7-fluoro-2,3-dihydro-1H-inden-1-yloxy)-2,3-dihydrobenzofuran-3-yl)acetic acid] | 11 nM
CCS(=O)(=O)N1CC(COc2cc(C)c(-c3ccc(F)c4c3CC[C@H]4Oc3ccc4c(c3)OC[C@H]4CC(=O)O)c(C)c2)C1 [Example 30, 2-((S)-6-((R)-4-(4-((1-(Ethylsulfonyl)azetidin-3-yl)methoxy)-2,6-dimethylphenyl)-7-fluoro-2,3-dihydro-1H-inden-1-yloxy)-2,3-dihydrobenzofuran-3-yl)acetic acid] | 7 nM
Cc1cc(OCC2CN(S(=O)(=O)C(C)C)C2)cc(C)c1-c1ccc(F)c2c1CC[C@H]2Oc1ccc2c(c1)OC[C@H]2CC(=O)O [Example 31, 2-((S)-6-((R)-7-Fluoro-4-(4-((1-(isopropylsulfonyl)azetidin-3-yl)methoxy)-2,6-dimethylphenyl)-2,3-dihydro-1H-inden-1-yloxy)-2,3-dihydrobenzofuran-3-yl)acetic acid] | 17 nM
Cc1cc(OC2CCS(=O)(=O)CC2)cc(C)c1-c1ccc(F)c2c1CC[C@H]2Oc1ccc2c(c1)OC[C@H]2CC(=O)O [Example 32, 2-((S)-6-((R)-4-(2,6-Dimethyl-4-(1,1-dioxo-tetrahydro-2H-thiopyran-4-yloxy)phenyl)-7-fluoro-2,3-dihydro-1H-inden-1-yloxy)-2,3-dihydrobenzofuran-3-yl)acetic acid] | 26 nM
Cc1cc(O[C@H]2C[C@@H](N(C)S(C)(=O)=O)C2)cc(C)c1-c1ccc(F)c2c1CC[C@H]2Oc1ccc2c(c1)OC[C@H]2CC(=O)O [Example 33, 2-((S)-6-((R)-4-(2,6-Dimethyl-4-((1s,3S)-3-(N-methylmethylsulfonamido)cyclobutoxy)phenyl)-7-fluoro-2,3-dihydro-1H-inden-1-yloxy)-2,3-dihydrobenzofuran-3-yl)acetic acid] | 12 nM
Cc1cc(O[C@H]2CCN(S(C)(=O)=O)C2)cc(C)c1-c1ccc(F)c2c1CC[C@H]2Oc1ccc2c(c1)OC[C@H]2CC(=O)O [Example 34, 2-((S)-6-((R)-4-(2,6-Dimethyl-4-((S)-1-(methylsulfonyl)pyrrolidin-3-yloxy)phenyl)-7-fluoro-2,3-dihydro-1H-inden-1-yloxy)-2,3-dihydrobenzofuran-3-yl)acetic acid] | 11 nM
Cc1cc(OCC2CCN(S(C)(=O)=O)CC2)cc(C)c1-c1ccc(F)c2c1CC[C@H]2Oc1ccc2c(c1)OC[C@H]2CC(=O)O [Example 35, 2-((S)-6-((R)-4-(2,6-Dimethyl-4-((1-(methylsulfonyl)piperidin-4-yl)methoxy)phenyl)-7-fluoro-2,3-dihydro-1H-inden-1-yloxy)-2,3-dihydrobenzofuran-3-yl)acetic acid] | 57 nM
Cc1c(OC2CCS(=O)(=O)CC2)cccc1-c1ccc(F)c2c1CC[C@H]2Oc1ccc2c(c1)OC[C@H]2CC(=O)O [Example 38, ((S)-6-{(R)-4-[3-(1,1-Dioxo-hexahydro-1-thiopyran-4-yloxy)-2-methyl-phenyl]-7-fluoro-indan-1-yloxy}-2,3-dihydro-benzofuran-3-yl)-acetic acid] | 76 nM
Cc1cc(OCC2(C)CN(S(C)(=O)=O)C2)cc(C)c1-c1ccc(F)c2c1CC[C@H]2Oc1ccc2c(c1)OC[C@H]2CC(=O)O [Example 39, ((S)-6-{(R)-7-Fluoro-4-[4-(1-methanesulfonyl-3-methyl-azetidin-3-ylmethoxy)-2,6-dimethyl-phenyl]-indan-1-yloxy}-2,3-dihydro-benzofuran-3-yl)-acetic acid] | 8 nM
COCCCS(=O)(=O)c1cc(C)c(-c2ccc(F)c3c2CC[C@H]3Oc2ccc3c(c2)OC[C@H]3CC(=O)O)c(C)c1 [Example 53, ((S)-6-{(R)-7-Fluoro-4-[4-(3-methoxy-propane-1-sulfonyl)-2,6-dimethyl-phenyl]-indan-1-yloxy}-2,3-dihydro-benzofuran-3-yl)-acetic acid] | 1220 nM
Cc1cc(OCCCS(C)(=O)=O)cc(C)c1-c1ccc(F)c2c1CC[C@H]2Oc1ccc2c(c1)OC[C@H]2CC(=O)O [Example 57, 2-((S)-6-((R)-4-(2,6-Dimethyl-4-(3-(methylsulfonyl)propoxy)phenyl)-7-fluoro-2,3-dihydro-1H-inden-1-yloxy)-2,3-dihydrobenzofuran-3-yl)acetic acid] | 26 nM
Cc1c(OCCCS(C)(=O)=O)cccc1-c1ccc(F)c2c1CC[C@H]2Oc1ccc2c(c1)OC[C@H]2CC(=O)O [Example 58, 2-((3S)-6-((1R)-7-Fluoro-4-(2-methyl-3-(3-(methylsulfonyl)propoxy)phenyl)-2,3-dihydro-1H-inden-1-yloxy)-2,3-dihydrobenzofuran-3-yl)acetic acid] | 58 nM
Cc1c(C(N)=O)cccc1-c1ccc(F)c2c1CC[C@H]2Oc1ccc2c(c1)OC[C@H]2CC(=O)O [Example 59, 2-((3S)-6-((1R)-4-(3-Carbamoyl-2-methylphenyl)-7-fluoro-2,3-dihydro-1H-inden-1-yloxy)-2,3-dihydrobenzofuran-3-yl)acetic acid] | 117 nM
Cc1cc(C(N)=O)cc(C)c1-c1ccc(F)c2c1CC[C@H]2Oc1ccc2c(c1)OC[C@H]2CC(=O)O [Example 60, 2-((S)-6-((R)-4-(4-Carbamoyl-2,6-dimethylphenyl)-7-fluoro-2,3-dihydro-1H-inden-1-yloxy)-2,3-dihydrobenzofuran-3-yl)acetic acid] | 26 nM
Cc1cc(C(=O)N(C)C)cc(C)c1-c1ccc(F)c2c1CC[C@H]2Oc1ccc2c(c1)OC[C@H]2CC(=O)O [Example 61, 2-((S)-6-((R)-4-(4-(Dimethylcarbamoyl)-2,6-dimethylphenyl)-7-fluoro-2,3-dihydro-1H-inden-1-yloxy)-2,3-dihydrobenzofuran-3-yl)acetic acid] | 51 nM
CNC(=O)c1cc(C)c(-c2ccc(F)c3c2CC[C@H]3Oc2ccc3c(c2)OC[C@H]3CC(=O)O)c(C)c1 [Example 62, 2-((S)-6-((R)-4-(2,6-Dimethyl-4-(methylcarbamoyl)phenyl)-7-fluoro-2,3-dihydro-1H-inden-1-yloxy)-2,3-dihydrobenzofuran-3-yl)acetic acid] | 11 nM
